According to patent US7700111B2, “Auditory nerve protection and re-growth” (The Regents of the University of Michigan, priority 2002, dated 2010):
Entries after “also recorded” stand apart in the source; their conditions may differ.

Assays:
Format in all cases: in vivo, guinea pig
[1] = tested on: cochlear vasculature; experiment: Cochlear blood flow (laser Doppler), blood pressure and vascular conductance after 8-iso-PGF2a / SQ29,548 infusion; conditions: for blood pressure (BP) response / cochlear blood flow (CBF) response: after administration, dose series; for cochlear vascular conductance (VC = CBF/BP) response: intravenous infusion
Protocol: (§1) The infusion rate was controlled by a syringe pump. Systemic infusions were achieved via a cannula inserted in the right jugular vein. Changes in cochlear blood flow (CBF) were measured with the fine probe of a laser Doppler flowmeter (LDF) placed on the bony surface of the cochlea. Arterial blood pressure (BP) and heart rate were monitored from a cannula in the right carotid artery. BP and CBF were continuously recorded, as was their ratio (CBF/BP) as a derived measure of cochlear vascular […] (VC). The results are shown if FIGS. 10-18.

[2] = tested on: outer and inner hair cells; experiment: Hair cell count (cytocochleogram) after noise exposure; conditions: for inner hair cell loss / outer hair cell loss: region 9-13 mm from apex, 10 days after noise, versus 0.9% NaCl; for hair cell loss: hair cell type not specified
Protocol: (§2) Each animal received a drug dose before either being noise-exposed for 5 hours or simply placed in the exposure chamber for 5 hours. Auditory brain stem responses (ABR) were measured 2 days before and 10 days after noise exposure or sham exposure. Immediately after the second ABR measurement, animals were sacrificed for histological examination or for measurement of 8-isoprostane.
(§3) Animals were assigned to one of 17 groups (see Table 3). Eight groups were used to assess the effects of these agents on noise-induced threshold (auditory brain stem response, ABR) sensitivity and hair cell damage (cytocochleogram). Nine groups were used to determine the effects on noise-induced lipid peroxidation. Groups were injected intraperitoneally with 5 ml/kg of 0.9% NaCl, 0.2 mg/ml (+)-MK-801, 0.2 mg/ml (−)-MK-801, 0.2 mg/ml L-NAME, 100 mg/ml NAC, or a mixture of 0.2 mg/ml (+)-MK-801 and 100 mg/ml NAC 30 min before being placed in the exposure chamber. Because of the high clearance of PD 174494, one group of animals received 5 ml/kg of 2 mg/ml PD 174494 intraperitoneally 30 min before and 2 hr into noise exposure. A control group received 5 ml/kg of 0.9% NaCl on the same time schedule.
(§4) Animals were exposed to noise in a lighted and ventilated sound exposure chamber while having free access to food and water. The sound chamber was fitted with speakers driven by a noise generator and a power amplifier. Using a ½-inch Brūel and Kjaer condenser microphone and Fast Fourier Transform analyzer, sound levels were measured and calibrated at multiple locations within the sound chamber to ensure uniformity of the stimulus. The stimulus intensity varied by a maximum of 3 dB across measured sites within the exposure chamber. Animals were individually subjected to 4 kHz octave band noise, 115 dB SPL for 5 hours. Two hours after initiation, noise exposure was interrupted for 10 min to perform the second injection of 0.9% NaCl or PD 174494 in groups requiring it.
Animals were sacrificed under deep anesthesia. The bullae were quickly removed and transferred into 4% paraformaldehyde in 0.01 M phosphate-buffered saline (PBS)(pH 7.4). The bone near the apex, round window, and oval window was opened, followed by two gentle local perfusions from the apex with 1 ml of 4% paraformaldehyde each. The tissue was kept in the fixative for 12 hr. After removal of the bony capsule and the lateral wall tissues, the modiolar core including the organ of Corti was removed from the temporal bone. Following permeabilization with 0.3% Triton X-100 for 10 min, whole-mounts of the organ of Corti were stained for actin with fluorescent phalloidin for 30 min to outline hair cells and their stereocilia for a quantitative assessment (Raphael and Altschuler, Hear. Res., 31:173 [1991]). Slide preparations were observed under fluorescence microscopy and missing (as shown by scar formation) and present (as shown by intact stereocilia) hair cells in the sensory epithelium were counted from the apex to the base in 0.19 mm segments. Percent hair cell loss was calculated for each segment. A group mean cytocochleogram was created by averaging the loss at each segment. Differences were evaluated for statistical significance on the basis of data from the region 9-13 mm from apex, the region of greatest damage in a previous study (Ohinata et al., Hear. Res. 146: 28 [2000]).

[3] = tested on: 8-isoprostane; experiment: Cochlear 8-isoprostane (lipid peroxidation) by enzyme immunoassay after noise exposure; conditions: for 8-isoprostane level in the lateral wall / 8-isoprostane level in the modiolar core / 8-isoprostane level in the organ of Corti: after noise exposure, versus 0.9% NaCl
Protocol: as §2, §3, §4
Animals were anesthetized with xylazine (10 mg/kg) and ketamine (40 mg/kg) given intramuscularly and decapitated. The auditory bullae were removed and the bony capsule of the cochlea was immediately opened.
Guinea pig cochleae were dissected in ice-cold Hanks' balanced salt solution (HBSS, Gibco Laboratories, Grand Island, N.Y.: 1.25 mM CaCl2, 5.55 mM glucose, 0.81 mM MgSO4, 0.44 mM KH2PO4, 136.9 mM NaCl, 0.34 mM Na2HPO4, 5.4 mM KCl, 5.0 mM sodium HEPES, with pH titrated to 7.4 (with NaOH) and osmolality adjusted to 300±1 mOsm with NaCl). Lateral wall tissues (spiral ligament and stria vascularis) and organ of Corti were removed from the modiolar core. The tissues were transferred to a 0.05% dl-dithiothreitol solution to prevent auto-oxidation of arachidonic acid and homogenized with a homogenizer for 30 sec. The homogenate was centrifuged at 7,200×g for 15 min at 4° C. Proteins were measured in aliquots of the supernatant by the Bradford method (Bradford, Anal. Biochem. 72: 248 [1976]). Butyl hydroxytoluene was added to the supernatant to a concentration of 0.1%, followed by 200 μl of ethanol and another homogenization. The homogenate was centrifuged at 1,500×g for 10 min at 4° C. Two hundred μl of 15% KOH was added to the supernatant for determination of the levels of free and esterified 8-isoprostane, and the mixture was incubated at 40° C. for 1 hr. The solution was then acidified to pH 3 with HCl. The samples were applied to octadecylsilyl silica columns pre-activated with methanol and distilled water and subsequently washed with distilled water and then with hexane. 8-isoprostane was eluted with ethyl acetate containing 1% methanol, and the eluate was evaporated under N2 to dryness. The samples were dissolved in 30 μl of acetone and spotted on silica gel G thin layer chromatography plates, which were developed in chloroform/methanol/acetic acid/water (80:18:1:0.8, v/v). 8-isoprostane was located from the Rf of standards run on the same plate and visualized by spraying with 3.5% phosphomolybdic acid. […]

[4] = Noise-induced permanent ABR threshold shift; conditions: 10 days after 4 kHz octave band noise, 115 dB SPL, 5 hours; 2, 4, 8, 16, 20 kHz; drug i.p. 30 min before noise; versus 0.9% NaCl
Protocol: as §2, §3
Animals were anesthetized with xylazine (10 mg/kg) and ketamine (40 mg/kg) given intramuscularly. A differential active needle electrode was placed subcutaneously below the test ear and a reference electrode at the vertex. A ground electrode was positioned below the contralateral ear. The sound stimuli consisted of 15 ms tone bursts, with a rise-fall time of 1 ms at frequencies of 2, 4, 8, 16 and 20 kHz, and were generated using a Fordham Audio Generator (Model AG-298, Fordham Radio Supply, Hauppauge N.Y.). They were presented to the right external auditory meatus in a closed acoustic system through an ear bar connected to a transducer (Beyer DT-48, Beyer Dynamic, Farmingdale N.Y.). The sound intensity was varied by 5 dB intervals. One thousand twenty-four tone presentations given at the rate of 9 s^−1 were averaged using a microcomputer and custom software to obtain a waveform. Hearing threshold was defined by the consistent appearance of ABR peaks III or IV. Test/retest reliability was within 5 dB. After the second ABR measurement, the cochleae were harvested.
Animals were exposed to noise in a lighted and ventilated sound exposure chamber while having free access to food and water. The sound chamber was fitted with speakers driven by a noise generator and a power amplifier. Using a ½-inch Brūel and Kjaer condenser microphone and Fast Fourier Transform analyzer, sound levels were measured and calibrated at multiple locations within the sound chamber to ensure uniformity of the stimulus. The stimulus intensity varied by a maximum of 3 dB across measured sites within the exposure chamber. […]

[5] = tested on: cochlear vasculature; experiment: Noise-induced cochlear vasoconstriction (120 dB, one hour); conditions: given intraperitoneally 1 hour before noise exposure
Protocol: as §1
Three guinea pigs were exposed to high intensity (120 dB) noise for one hour (6×10 min, red lines in top panel). BP, CBF, and VC measurements were made during 2-min off-noise periods. Over the course of the exposure, there was pronounced vasoconstriction (VC) and decrease in cochlear blood flow (CBF), while BP remained stable (mean±SD).
Noise exposure was as in FIG. 15. However, when the antioxidant glutathione-monoethyl ester (GSHE) was given intraperitoneally 1 hour before noise exposure, the effect of noise on CBF and VC was eliminated.

[6] = AICA infusion of ~25 μg/kg over 2 min, minimal BP change

Molecule	inner hair cell loss [2]	outer hair cell loss [2]	8-isoprostane level in the lateral wall [3]	8-isoprostane level in the modiolar core [3]	8-isoprostane level in the organ of Corti [3]	noise-induced ABR threshold shift [4]	hair cell loss [2]	other results
CCCCC[C@H](O)/C=C/[C@@H]1[C@H](C/C=C\CCCC(=O)O)[C@@H](O)C[C@H]1O [8-iso-PGF2a, 8-iso-prostaglandin F2a]								BP during AICA infusion ([1]; 2 min AICA infusion, some of the subjects): no significant elevation in BP; decrease in CBF [1, 6]: 25-30%; decrease in VC [1, 6]: 25-30%; blood pressure (BP) response [1]: increasing response; cochlear blood flow (CBF) response [1]: increasing response; blood pressure (BP) response ([1]; listed as 8-isoPGF2a): rapid and concentration-dependent change; cochlear blood flow (CBF) response ([1]; listed as 8-isoPGF2a): rapid and concentration-dependent change; cochlear vascular conductance (VC = CBF/BP) response [1]: dose-dependent constriction of the cochlear vasculature; also recorded: Strong concentration-dependent decrease; also recorded: clear dose-dependent decrease; cochlear vascular conductance (VC = CBF/BP) response ([1]; listed as 8-isoPGF2a): strong dose-dependent decrease; dose at which the VC decrease approaches saturation ([1]; intravenous, mean maximum VC response 1.5-2.5 min after infusion initiation): approximately 30 mg/kg; BP, CBF and VC response to AICA infusion ([1]; sequential 1.25 min infusions via AICA, or 2 min AICA infusion): no significant response to the lower two doses; also recorded: dose-dependent constriction of the cochlear vasculature; also recorded: local vasoconstrictive response
(−)-MK-801	not affected	decreased	did not affect	did not affect	did not affect			
CC(=O)N[C@@H](CS)C(=O)O [NAC, N-acetylcysteine]	attenuated; also recorded: some protective effect	attenuated	attenuated	attenuated	attenuated	significantly attenuated threshold shifts at all frequencies	successful in preventing hair cell loss	
Cc1ccc(CC2(O)CCN(CCOc3ccc(O)cc3)CC2)cc1 [PD 174494]	protected only inner hair cells	protected only inner hair cells	did not influence	suppressed	suppressed; also recorded: less with PD 174494 than with the other treatments	significantly attenuated noise-induced hearing loss at 2, 4 and 8 kHz; also recorded: decreased threshold shift		inner hair cell loss ([2]; listed as PD 174474): some protective effect; effect on 8-isoprostane formation relative to that of (+)-MK-801 ([3]; organ of Corti and modiolar core): about half
COC(=O)[C@@H](N)CCCNC(=N)N[N+](=O)[O-] [L-NAME, L-N^ω-Nitroarginine methyl ester]	increased	not affected	suppressed; also recorded: decreased 8-isoprostane level	suppressed	decreased 8-isoprostane level in the organ of Corti	significantly attenuated at 2 kHz; also recorded: increased at 20 kHz; also recorded: not threshold shift	had no effect	
CCOC(=O)CNC(=O)[C@H](CS)NC(=O)CC[C@H](N)C(=O)O [GSHE, glutathione-monoethyl ester]								effect of noise on CBF [5]: eliminated; effect of noise on VC [5]: eliminated
(+)-MK-801	attenuated; also recorded: some protective effect	attenuated	did not influence	attenuated	attenuated	significantly attenuated threshold shifts at all frequencies; also recorded: decreased threshold shift	successful in preventing hair cell loss	
O=C(O)CCC/C=C\C[C@@H]1[C@H](CNNC(=O)Nc2ccccc2)[C@H]2CC[C@@H]1O2 [SQ29,548]								decrease in cochlear vascular constriction ([1]; 35 mg/kg 8-iso-PGF2a i.v. before and after AICA infusion of antagonist, two subjects): 12%; effect on vasoconstriction (VC) by isoPGF2a ([1]; addition of the antagonist): blocked; maximum mean VC value during SQ29,548 infusion, less than after the initial 8-iso-PGF2a infusion ([1]; continuous AICA infusion of antagonist, 8-iso-PGF2a about 75-95 mg/kg i.v. over 20 sec, three subjects): 8-10%
